Test [1] addresses T1, KOR (Mus musculus, UniProt P33534). The test is classed as binding.
For test [2], the target named is T2, DOR (Homo sapiens, UniProt P41143). The test can be described thus: biochemical. Type of test: binding.
In the next test the target is MOR (Mus musculus, UniProt P42866). The test can be described thus: biochemical. Type of test: biochemical. The note with it: for Emax: read-out: MOR [35S]GTPγS Binding % Emax of DAMGO. On the technique in general: GTPγS is a poorly hydrolysed GTP analogue; its binding reports G protein activation.
In test [3] the target is T1, KOR. The test can be described thus: biochemical. The note with it: read-out: KOR [35S]GTPγS Binding % Emax of U50,488H.
Test [4] addresses T2, DOR. The experiment in a line: biochemical. The note with it: read-out: DOR [35S]GTPγS Binding % Emax of SNC80.

The text below walks through data of paper PMC10149103 (Journal of medicinal chemistry, 2022).

Values joined by “and” are separate entries in the source; they are usually repeats but may differ in a detail not shown here. Identical values can stand only once. Counter-ions that a name gives are not always drawn.

T2 sequence (P41143 whole entry): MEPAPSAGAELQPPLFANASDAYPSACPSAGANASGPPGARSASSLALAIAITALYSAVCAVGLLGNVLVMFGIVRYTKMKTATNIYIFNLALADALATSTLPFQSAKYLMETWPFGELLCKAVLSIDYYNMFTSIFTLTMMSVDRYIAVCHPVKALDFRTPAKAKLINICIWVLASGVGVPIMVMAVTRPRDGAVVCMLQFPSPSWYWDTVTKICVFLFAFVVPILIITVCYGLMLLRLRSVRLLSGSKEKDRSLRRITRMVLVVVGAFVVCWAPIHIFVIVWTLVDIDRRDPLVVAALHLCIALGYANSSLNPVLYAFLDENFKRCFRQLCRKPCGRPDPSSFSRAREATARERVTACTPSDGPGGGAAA
T1 sequence (P33534 whole entry): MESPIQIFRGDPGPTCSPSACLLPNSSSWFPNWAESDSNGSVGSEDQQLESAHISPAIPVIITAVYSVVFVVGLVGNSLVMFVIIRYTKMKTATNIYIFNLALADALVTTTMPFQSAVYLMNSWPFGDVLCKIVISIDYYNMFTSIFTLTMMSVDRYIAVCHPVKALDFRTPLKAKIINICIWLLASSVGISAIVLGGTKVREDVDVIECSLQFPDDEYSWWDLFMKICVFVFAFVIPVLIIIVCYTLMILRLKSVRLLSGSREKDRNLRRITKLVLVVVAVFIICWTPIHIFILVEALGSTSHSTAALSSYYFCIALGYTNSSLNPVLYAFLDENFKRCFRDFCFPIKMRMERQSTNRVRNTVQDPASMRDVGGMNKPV
MOR, sequence (P42866 whole entry): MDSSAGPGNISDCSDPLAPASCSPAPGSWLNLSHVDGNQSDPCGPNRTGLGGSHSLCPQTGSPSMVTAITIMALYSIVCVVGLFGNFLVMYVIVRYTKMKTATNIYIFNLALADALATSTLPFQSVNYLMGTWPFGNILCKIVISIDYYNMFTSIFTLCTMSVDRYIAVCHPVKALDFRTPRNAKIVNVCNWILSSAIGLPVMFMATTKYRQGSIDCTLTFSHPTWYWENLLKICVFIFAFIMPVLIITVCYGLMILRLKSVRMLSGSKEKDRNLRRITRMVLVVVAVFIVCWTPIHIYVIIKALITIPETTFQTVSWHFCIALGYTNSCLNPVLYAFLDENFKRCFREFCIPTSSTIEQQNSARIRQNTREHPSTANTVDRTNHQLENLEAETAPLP

As for `Cl.O=C(Cc1ccoc1)N[C@@H]1CC[C@@]2(O)[C@H]3Cc4ccc(O)c5c4[C@@]2(CCN3CC2CC2)[C@H]1O5` [Compound 22, 17-Cyclopropylmetyl-3,14β-dihydroxy-4,5α-epoxy-6β-[(3′-furanyl)acetamido]morphinan Hydrochloride], the “Selectivity κ/μ” value at KOR [1] is 16.7 and 17. The “Selectivity δ/μ” value at DOR [2] is on record as 332. The maximal effect (Emax) on MOR was 30.8 ± 2.07%.

`Cl.O=C(N[C@H]1CC[C@@]2(O)[C@H]3Cc4ccc(O)c5c4[C@@]2(CCN3CC2CC2)[C@H]1O5)c1cc[nH]c1` [Compound 7, 17-Cyclopropylmethyl-3,14β-dihydroxy-4,5α-epoxy-6α-[(3′-pyrrolyl)carboxamido]morphinan Hydrochloride]: at KOR [1], the “Selectivity κ/μ” value came out at 2. Also, the “Selectivity δ/μ” value at DOR [2] was found to be 31. In addition, the “MOR [35S]GTPγS Binding % Emax of DAMGO” value on MOR was 16.65 ± 1.25%.

Consider `Cl.O=C(Cc1ccoc1)N[C@H]1CC[C@@]2(O)[C@H]3Cc4ccc(O)c5c4[C@@]2(CCN3CC2CC2)[C@H]1O5` [Compound 21, 17-Cyclopropylmetyl-3, 14β-dihydroxy-4,5α-epoxy-6α-[(3′-furanyl)acetamido]morphinan Hydrochloride], for which the “Selectivity κ/μ” value on KOR [1] stood at 15. Besides, on DOR [2], the “Selectivity δ/μ” value is listed as 9. The “MOR [35S]GTPγS Binding % Emax of DAMGO” value on MOR was 14.95 ± 1.46%.

For `Cl.O=C(CCc1ccc[nH]1)N[C@@H]1CC[C@@]2(O)[C@H]3Cc4ccc(O)c5c4[C@@]2(CCN3CC2CC2)[C@H]1O5` [Compound 6, 17-Cyclopropylmethyl-3,14β-dihydroxy-4,5α-epoxy-6β-[3′-(2′-pyrrolyl)propanamido]morphinan Hydrochloride], the “Selectivity κ/μ” value on KOR [1] was 2. For the same molecule, the “Selectivity δ/μ” value on DOR [2] turned out to be 70. Moreover, the Emax on MOR is 39.3 ± 3.16%.

Regarding `Cl.O=C(Cc1ccco1)N[C@H]1CC[C@@]2(O)[C@H]3Cc4ccc(O)c5c4[C@@]2(CCN3CC2CC2)[C@H]1O5` [Compound 15, 17-Cyclopropylmethyl-3, 14β-dihydroxy-4,5α-epoxy-6α-[(2′-furanyl)acetamido]morphinan Hydrochloride], the values for the Emax at MOR, on KOR [3] and on DOR [4] were 22.6 ± 2.77%, 63.3 ± 2.5% and 66.8 ± 4.24%, respectively.

For the molecule `O=C(Cc1cccs1)N[C@H]1CC[C@@]2(O)[C@H]3Cc4ccc(O)c5c4[C@@]2(CCN3CC2CC2)[C@H]1O5` [Compound 27, 17-Cyclopropylmethyl-3,14β-dihydroxy-4,5α-epoxy-6α-(2′-thienylacetamido)morphinan Hydrochloride], the Ki at DOR [2] is 6.92 ± 1.63 nM.

Take `Cl.O=C(Cc1cc[nH]c1)N[C@H]1CC[C@@]2(O)[C@H]3Cc4ccc(O)c5c4[C@@]2(CCN3CC2CC2)[C@H]1O5` [Compound 9, 17-Cyclopropylmethyl-3, 14β-dihydroxy-4,5α-epoxy-6α-[(3′-pyrrolyl)acetamido]morphinan Hydrochloride]: the “Selectivity κ/μ” value at KOR [1] is on record as 5. The “Selectivity δ/μ” value at DOR [2] was 4. The Emax on MOR turned out to be 31.6 ± 2.87%.

In the case of `Cl.O=C(N[C@H]1CC[C@@]2(O)[C@H]3Cc4ccc(O)c5c4[C@@]2(CCN3CC2CC2)[C@H]1O5)c1ccoc1` [Compound 19, 17-Cyclopropylmethyl-3, 14β-dihydroxy-4,5α-epoxy-6α-[(3′-furanyl)carboxamido]morphinan Hydrochloride], the “MOR [35S]GTPγS Binding % Emax of DAMGO” value at MOR stood at 18.14 ± 2.95%.

Consider `Cl.O=C(CCc1cc[nH]c1)N[C@@H]1CC[C@@]2(O)[C@H]3Cc4ccc(O)c5c4[C@@]2(CCN3CC2CC2)[C@H]1O5` [Compound 12], for which the “Selectivity κ/μ” value on KOR [1] was found to be 7. Also, the “Selectivity δ/μ” value at DOR [2] is given as 164. Further, on MOR, the maximal effect (Emax) came to 37.7 ± 0.87%.

Regarding `Cl.O=C(Cc1ccc[nH]1)N[C@H]1CC[C@@]2(O)[C@H]3Cc4ccc(O)c5c4[C@@]2(CCN3CC2CC2)[C@H]1O5` [Compound 3, 17-Cyclopropylmethyl-3,14β-dihydroxy-4,5α-epoxy-6a-[2′-(2′-pyrrolyl)acetamido]morphinan Hydrochloride], the “Selectivity κ/μ” value on KOR [1] stood at 6. Further, the “Selectivity δ/μ” value on DOR [2] is 8. Also, the Emax at MOR is 25 ± 2.61%.

Consider `Cl.O=C(Cc1cc[nH]c1)N[C@@H]1CC[C@@]2(O)[C@H]3Cc4ccc(O)c5c4[C@@]2(CCN3CC2CC2)[C@H]1O5` [Compound 10, 17-Cyclopropylmethyl-3,14β-dihydroxy-4,5α-epoxy-6β-[(3′-pyrrolyl)acetamido]morphinan Hydrochloride], for which the Emax on MOR was 53.3 ± 0.95%.

As to `Cl.O=C(CCc1ccco1)N[C@@H]1CC[C@@]2(O)[C@H]3Cc4ccc(O)c5c4[C@@]2(CCN3CC2CC2)[C@H]1O5` [Compound 18, 17-Cyclopropylmethyl-3,14β-dihydroxy-4,5α-epoxy-6β-[(2′-furanyl)propanamido]morphinan Hydrochloride], the “Selectivity κ/μ” value on KOR [1] is 2. Also, the “Selectivity δ/μ” value at DOR [2] is given as 118.

For `Cl.O=C(N[C@@H]1CC[C@@]2(O)[C@H]3Cc4ccc(O)c5c4[C@@]2(CCN3CC2CC2)[C@H]1O5)c1ccoc1` [Compound 20, 17-Cyclopropylmethyl-3,14β-dihydroxy-4,5α-epoxy-6β-[(3′-furanyl)carboxamido]morphinan Hydrochloride], the “Selectivity κ/μ” value at KOR [1] is given as 3. At DOR [2], the “Selectivity δ/μ” value came to 234. In addition, the Emax at MOR amounted to 25 ± 1.74%.

Consider `Cl.O=C(Cc1ccc[nH]1)N[C@@H]1CC[C@@]2(O)[C@H]3Cc4ccc(O)c5c4[C@@]2(CCN3CC2CC2)[C@H]1O5` [Compound 4, 17-Cyclopropylmethyl-3,14β-dihydroxy-4,5α-epoxy-6β-[2′-(2′-pyrrolyl)acetamido]morphinan Hydrochloride], for which, at KOR [1], the “Selectivity κ/μ” value came to 8. Moreover, on DOR [2], the “Selectivity δ/μ” value is listed as 152. For the same molecule, on MOR, the Emax stood at 44.2 ± 1.52%.

As for `Cl.O=C(CCc1ccco1)N[C@H]1CC[C@@]2(O)[C@H]3Cc4ccc(O)c5c4[C@@]2(CCN3CC2CC2)[C@H]1O5` [Compound 17, 17-Cyclopropylmethyl-3, 14β-dihydroxy-4,5α-epoxy-6α-[(2′-furanyl)propanamido]morphinan Hydrochloride], the “Selectivity δ/μ” value at DOR [2] amounted to 4.

Consider `Cl.O=C(CCc1ccc[nH]1)N[C@H]1CC[C@@]2(O)[C@H]3Cc4ccc(O)c5c4[C@@]2(CCN3CC2CC2)[C@H]1O5` [Compound 5, 17-Cyclopropylmethyl-3,14β-dihydroxy-4,5α-epoxy-6α[3′-(2′-pyrrolyl)propanamido]morphinan Hydrochloride], for which the Emax at MOR worked out at 24 ± 3.59%.

`Cl.O=C(N[C@H]1CC[C@@]2(O)[C@H]3Cc4ccc(O)c5c4[C@@]2(CCN3CC2CC2)[C@H]1O5)c1ccco1` [Compound 13, 17-Cyclopropylmethyl-3,14β-dihydroxy-4,5α-epoxy-6α-[(2′furanyl)carboxamido]morphinan Hydrochloride]: the “Selectivity κ/μ” value at KOR [1] is 3.83 and 4. Moreover, on DOR [2], the “Selectivity δ/μ” value is 62.83 and 63. Also, at MOR, the Emax came out at 21.8 ± 5.19%.

In the case of `Cl.O=C(N[C@@H]1CC[C@@]2(O)[C@H]3Cc4ccc(O)c5c4[C@@]2(CCN3CC2CC2)[C@H]1O5)c1ccco1` [Compound 14, 17-Cyclopropylmethyl-3,14β-dihydroxy-4,5α-epoxy-6β-[(2′furanyl)carboxamido]morphinan Hydrochloride], the Emax at MOR came to 24.2 ± 0.9%; at KOR [3], 67.2 ± 2.53%; at DOR [4], 23.1 ± 0.97%.

Consider `Cl.O=C(N[C@H]1CC[C@@]2(O)[C@H]3Cc4ccc(O)c5c4[C@@]2(CCN3CC2CC2)[C@H]1O5)c1ccc[nH]1` [Compound 1, 17-Cyclopropylmethyl-3,14β-dihydroxy-4,5α-epoxy-6a-[(2′-pyrrolyl)carboxamido]morphinan Hydrochloride], for which the “MOR [35S]GTPγS Binding % Emax of DAMGO” value on MOR was found to be 12.11 ± 2.64%. Moreover, the Emax on KOR [3] amounted to 43.4 ± 1.36%; on DOR [4], 50.9 ± 5.25%.

In the case of `Cl.O=C(Cc1ccco1)N[C@@H]1CC[C@@]2(O)[C@H]3Cc4ccc(O)c5c4[C@@]2(CCN3CC2CC2)[C@H]1O5` [Compound 16, 17-Cyclopropylmethyl-3,14β-dihydroxy-4,5α-epoxy-6β-[(2′-furanyl)acetamido]morphinan Hydrochloride], the Emax at MOR amounted to 40 ± 0.9%; at KOR [3], 49.3 ± 1.07%; on DOR [4], 31.2 ± 1.49%.

For orientation: Emax means the greatest response seen or fitted, relative to the assay's reference. The Ki is the equilibrium dissociation constant of an inhibitor or competing ligand from its target. Lower therefore signals higher affinity.
